Results: paper PMC8213057, “Targeting ALK2: An Open Science Approach to Developing Therapeutics for the Treatment of Diffuse Intrinsic Pontine Glioma” (Journal of Medicinal Chemistry, 2020)

Tests used:
MEKK6 = target: T1, MEKK6 (Homo sapiens, UniProt O95382); experiment: biochemical; conditions: read-out: % enzyme activity, 1 μM; Run 1, Run 2
T1 sequence (O95382 1-1288): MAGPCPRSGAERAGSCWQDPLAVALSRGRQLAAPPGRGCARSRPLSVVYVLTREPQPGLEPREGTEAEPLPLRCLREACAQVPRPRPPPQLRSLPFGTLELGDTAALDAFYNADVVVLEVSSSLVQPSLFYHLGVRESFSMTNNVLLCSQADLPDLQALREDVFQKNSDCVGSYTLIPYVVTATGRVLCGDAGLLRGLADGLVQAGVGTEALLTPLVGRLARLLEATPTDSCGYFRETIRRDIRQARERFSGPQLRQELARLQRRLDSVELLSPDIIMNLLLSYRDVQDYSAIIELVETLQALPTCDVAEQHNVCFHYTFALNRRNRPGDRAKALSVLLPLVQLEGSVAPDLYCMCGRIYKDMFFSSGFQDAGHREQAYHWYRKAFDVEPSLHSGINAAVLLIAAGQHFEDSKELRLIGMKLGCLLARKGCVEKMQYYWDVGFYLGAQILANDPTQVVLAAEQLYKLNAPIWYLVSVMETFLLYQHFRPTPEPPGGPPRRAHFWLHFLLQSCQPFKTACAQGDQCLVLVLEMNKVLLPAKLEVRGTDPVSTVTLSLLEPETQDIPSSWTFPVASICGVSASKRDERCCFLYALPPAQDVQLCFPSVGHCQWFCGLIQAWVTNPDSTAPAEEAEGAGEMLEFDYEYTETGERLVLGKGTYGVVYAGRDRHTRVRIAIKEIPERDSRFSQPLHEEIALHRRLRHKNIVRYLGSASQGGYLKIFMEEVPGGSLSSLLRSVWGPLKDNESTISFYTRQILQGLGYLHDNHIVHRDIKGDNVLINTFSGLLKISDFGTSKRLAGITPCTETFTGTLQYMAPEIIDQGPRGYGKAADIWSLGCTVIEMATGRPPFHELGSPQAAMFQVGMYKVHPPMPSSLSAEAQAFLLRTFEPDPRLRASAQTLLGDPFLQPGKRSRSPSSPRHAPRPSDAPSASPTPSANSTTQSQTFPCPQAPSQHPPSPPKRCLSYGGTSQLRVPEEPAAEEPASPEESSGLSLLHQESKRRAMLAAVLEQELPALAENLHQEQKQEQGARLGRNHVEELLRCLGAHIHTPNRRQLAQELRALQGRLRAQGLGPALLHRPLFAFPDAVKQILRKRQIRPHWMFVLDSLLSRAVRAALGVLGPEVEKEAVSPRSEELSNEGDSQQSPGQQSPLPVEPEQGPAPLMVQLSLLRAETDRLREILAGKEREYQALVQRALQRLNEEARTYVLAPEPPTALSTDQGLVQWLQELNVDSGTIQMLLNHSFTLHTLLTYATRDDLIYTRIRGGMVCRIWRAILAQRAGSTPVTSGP

CDK1/cyclin E = CDK1/cyclin E (Homo sapiens, UniProt P06493); conditions: 1 μM; Run 1, Run 2
MLCK2/MYLK2 = MLCK2/MYLK2 (Homo sapiens, UniProt Q9H1R3); experiment: biochemical; conditions: read-out: % enzyme activity, 1 μM; Run 1, Run 2
c-Src = c-Src (Homo sapiens, UniProt P12931); conditions: 1 μM; Run 1, Run 2
PDGFRa = PDGFRa (Homo sapiens, UniProt P16234); experiment: biochemical; conditions: read-out: % enzyme activity, 1 μM; Run 1, Run 2
NLK = target: T2, NLK (Homo sapiens, UniProt Q9UBE8); experiment: 375-member kinase panel; format: biochemical; conditions: Run 1, Run 2; for % enzyme activity: 1 μM; for remaining activity at 1 µM: read-out: % enzyme activity, 1 μM
T2 construct: purchased Reaction Biology Corporation
T2 sequence (Q9UBE8 1-527): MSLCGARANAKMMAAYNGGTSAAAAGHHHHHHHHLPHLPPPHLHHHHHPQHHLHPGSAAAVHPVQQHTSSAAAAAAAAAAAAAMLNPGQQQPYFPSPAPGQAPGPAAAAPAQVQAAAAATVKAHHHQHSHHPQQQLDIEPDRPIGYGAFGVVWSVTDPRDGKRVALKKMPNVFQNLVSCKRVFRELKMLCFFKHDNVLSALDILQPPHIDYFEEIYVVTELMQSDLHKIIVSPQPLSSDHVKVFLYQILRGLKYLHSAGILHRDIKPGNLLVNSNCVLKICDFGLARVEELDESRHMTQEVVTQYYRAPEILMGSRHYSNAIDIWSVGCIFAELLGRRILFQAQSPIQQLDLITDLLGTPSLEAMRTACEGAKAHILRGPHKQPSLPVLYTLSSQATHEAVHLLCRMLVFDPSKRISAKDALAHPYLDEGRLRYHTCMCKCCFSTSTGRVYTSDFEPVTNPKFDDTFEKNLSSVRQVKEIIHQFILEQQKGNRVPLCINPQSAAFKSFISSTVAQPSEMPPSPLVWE

MEK3 = target: T3, MEK3 (Homo sapiens, UniProt P46734); experiment: biochemical; conditions: read-out: % enzyme activity, 1 μM; Run 1, Run 2
T3 sequence (P46734 1-347): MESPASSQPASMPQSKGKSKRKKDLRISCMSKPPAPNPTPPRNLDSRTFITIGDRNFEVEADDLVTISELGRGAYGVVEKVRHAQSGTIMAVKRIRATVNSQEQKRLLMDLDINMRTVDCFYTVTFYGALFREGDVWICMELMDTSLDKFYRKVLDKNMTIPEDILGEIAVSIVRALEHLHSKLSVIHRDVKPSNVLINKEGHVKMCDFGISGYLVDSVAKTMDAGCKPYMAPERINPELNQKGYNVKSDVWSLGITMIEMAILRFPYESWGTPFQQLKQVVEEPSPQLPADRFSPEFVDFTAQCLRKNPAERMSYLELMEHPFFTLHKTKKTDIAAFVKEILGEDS

MSK1/RPS6KA5 = MSK1/RPS6KA5 (Homo sapiens, UniProt O75582); conditions: 1 μM; Run 1, Run 2
MSK1/RPS6KA5, sequence (O75582 whole entry): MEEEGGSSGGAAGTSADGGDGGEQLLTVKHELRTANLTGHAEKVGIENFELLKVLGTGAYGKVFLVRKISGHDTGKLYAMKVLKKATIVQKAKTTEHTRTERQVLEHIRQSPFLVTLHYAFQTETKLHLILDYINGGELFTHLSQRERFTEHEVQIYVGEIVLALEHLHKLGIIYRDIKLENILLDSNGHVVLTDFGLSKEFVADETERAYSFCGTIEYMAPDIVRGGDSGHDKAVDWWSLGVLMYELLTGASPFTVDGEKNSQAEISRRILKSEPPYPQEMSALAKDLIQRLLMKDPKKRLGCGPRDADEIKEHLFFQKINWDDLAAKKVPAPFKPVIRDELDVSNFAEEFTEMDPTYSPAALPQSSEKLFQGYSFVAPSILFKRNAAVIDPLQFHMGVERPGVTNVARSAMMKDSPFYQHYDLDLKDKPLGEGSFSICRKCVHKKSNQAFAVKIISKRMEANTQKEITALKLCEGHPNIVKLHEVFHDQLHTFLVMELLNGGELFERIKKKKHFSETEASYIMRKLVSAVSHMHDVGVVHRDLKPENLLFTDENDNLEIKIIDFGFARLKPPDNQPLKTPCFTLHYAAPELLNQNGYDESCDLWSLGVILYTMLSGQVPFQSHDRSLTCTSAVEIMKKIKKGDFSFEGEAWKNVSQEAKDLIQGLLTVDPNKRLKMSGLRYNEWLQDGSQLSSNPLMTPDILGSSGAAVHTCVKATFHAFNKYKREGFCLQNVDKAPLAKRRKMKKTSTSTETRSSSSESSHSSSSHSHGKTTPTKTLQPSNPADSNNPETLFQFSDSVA

c-Src, sequence (P12931 whole entry): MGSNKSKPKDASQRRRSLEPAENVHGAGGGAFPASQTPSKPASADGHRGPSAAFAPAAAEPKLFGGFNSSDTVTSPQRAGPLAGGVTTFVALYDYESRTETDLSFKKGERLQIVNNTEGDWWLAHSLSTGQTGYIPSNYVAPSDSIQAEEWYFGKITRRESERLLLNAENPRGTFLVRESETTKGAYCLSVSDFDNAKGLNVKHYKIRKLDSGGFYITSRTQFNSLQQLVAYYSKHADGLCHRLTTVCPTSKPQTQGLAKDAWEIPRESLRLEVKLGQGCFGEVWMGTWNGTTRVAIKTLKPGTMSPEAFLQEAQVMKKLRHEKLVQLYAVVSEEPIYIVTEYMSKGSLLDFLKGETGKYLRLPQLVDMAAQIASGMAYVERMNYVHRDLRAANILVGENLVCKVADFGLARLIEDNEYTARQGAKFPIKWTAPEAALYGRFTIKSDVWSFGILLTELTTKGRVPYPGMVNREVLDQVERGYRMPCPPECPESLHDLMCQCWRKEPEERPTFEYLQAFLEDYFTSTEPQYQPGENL
PDGFRa, sequence (P16234 24-1089): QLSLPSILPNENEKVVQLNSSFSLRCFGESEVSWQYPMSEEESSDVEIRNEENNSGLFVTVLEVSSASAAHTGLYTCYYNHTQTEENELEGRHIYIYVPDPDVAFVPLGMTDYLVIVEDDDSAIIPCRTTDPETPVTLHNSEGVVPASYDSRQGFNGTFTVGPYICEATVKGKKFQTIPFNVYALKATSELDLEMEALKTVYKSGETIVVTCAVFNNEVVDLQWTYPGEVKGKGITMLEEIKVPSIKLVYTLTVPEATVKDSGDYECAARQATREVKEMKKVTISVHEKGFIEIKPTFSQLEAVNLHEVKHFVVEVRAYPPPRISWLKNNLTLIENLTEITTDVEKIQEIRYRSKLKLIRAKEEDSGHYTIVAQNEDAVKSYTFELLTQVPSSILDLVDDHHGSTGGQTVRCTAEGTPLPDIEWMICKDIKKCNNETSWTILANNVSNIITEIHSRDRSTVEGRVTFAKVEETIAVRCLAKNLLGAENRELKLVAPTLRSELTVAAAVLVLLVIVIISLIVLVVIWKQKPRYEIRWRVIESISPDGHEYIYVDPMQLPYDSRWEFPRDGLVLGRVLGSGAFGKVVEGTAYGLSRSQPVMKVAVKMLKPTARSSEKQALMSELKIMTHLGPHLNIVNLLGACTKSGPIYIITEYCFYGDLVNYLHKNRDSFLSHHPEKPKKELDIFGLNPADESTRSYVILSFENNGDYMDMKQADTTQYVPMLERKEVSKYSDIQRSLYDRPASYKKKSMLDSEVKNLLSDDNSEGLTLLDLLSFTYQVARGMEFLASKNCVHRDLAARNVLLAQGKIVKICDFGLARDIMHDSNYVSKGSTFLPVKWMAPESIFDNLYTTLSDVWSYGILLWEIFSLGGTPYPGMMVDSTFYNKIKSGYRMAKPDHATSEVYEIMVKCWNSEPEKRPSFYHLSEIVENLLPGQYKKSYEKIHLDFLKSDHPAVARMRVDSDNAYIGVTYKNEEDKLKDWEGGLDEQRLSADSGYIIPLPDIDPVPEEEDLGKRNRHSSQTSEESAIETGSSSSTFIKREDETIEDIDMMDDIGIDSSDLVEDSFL
MLCK2/MYLK2, sequence (Q9H1R3 whole entry): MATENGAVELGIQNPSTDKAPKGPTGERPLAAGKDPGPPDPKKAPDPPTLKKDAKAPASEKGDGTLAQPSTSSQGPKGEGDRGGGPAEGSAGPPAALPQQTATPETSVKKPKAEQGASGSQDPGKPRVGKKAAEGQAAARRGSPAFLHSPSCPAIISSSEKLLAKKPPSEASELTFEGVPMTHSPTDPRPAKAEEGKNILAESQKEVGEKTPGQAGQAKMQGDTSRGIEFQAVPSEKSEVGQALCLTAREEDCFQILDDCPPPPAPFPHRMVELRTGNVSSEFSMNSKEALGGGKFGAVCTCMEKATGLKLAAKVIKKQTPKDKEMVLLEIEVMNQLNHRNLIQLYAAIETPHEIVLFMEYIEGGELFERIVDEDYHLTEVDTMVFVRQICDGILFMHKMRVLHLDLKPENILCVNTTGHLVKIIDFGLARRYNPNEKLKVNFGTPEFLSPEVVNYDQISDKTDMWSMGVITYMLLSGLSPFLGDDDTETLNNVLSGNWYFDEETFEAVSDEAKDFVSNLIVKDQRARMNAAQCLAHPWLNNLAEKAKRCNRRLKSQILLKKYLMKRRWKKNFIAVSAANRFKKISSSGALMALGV
CDK1/cyclin E, sequence (P24864 whole entry): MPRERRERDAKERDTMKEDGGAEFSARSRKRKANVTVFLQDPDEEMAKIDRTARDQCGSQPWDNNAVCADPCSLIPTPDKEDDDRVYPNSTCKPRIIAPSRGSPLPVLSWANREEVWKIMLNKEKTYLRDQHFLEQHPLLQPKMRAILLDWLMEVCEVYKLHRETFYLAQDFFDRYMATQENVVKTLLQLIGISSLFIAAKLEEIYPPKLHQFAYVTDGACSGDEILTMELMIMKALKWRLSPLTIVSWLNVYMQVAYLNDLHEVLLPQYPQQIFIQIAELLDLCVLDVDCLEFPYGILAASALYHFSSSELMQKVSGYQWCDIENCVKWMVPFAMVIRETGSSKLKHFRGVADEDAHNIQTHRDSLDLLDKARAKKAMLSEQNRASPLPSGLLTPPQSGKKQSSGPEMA
CDK1/cyclin E, sequence (P06493 whole entry): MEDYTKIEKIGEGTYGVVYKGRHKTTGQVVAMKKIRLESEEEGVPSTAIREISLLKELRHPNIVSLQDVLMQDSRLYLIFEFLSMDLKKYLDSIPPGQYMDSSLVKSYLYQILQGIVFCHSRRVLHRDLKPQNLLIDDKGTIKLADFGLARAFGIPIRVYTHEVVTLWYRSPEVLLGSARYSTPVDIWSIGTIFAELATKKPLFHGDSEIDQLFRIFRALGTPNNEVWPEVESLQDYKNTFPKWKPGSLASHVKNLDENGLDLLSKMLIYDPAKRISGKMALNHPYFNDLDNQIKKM

| SMILES | remaining activity at 1 µM (MEKK6) [%] | % enzyme activity (CDK1/cyclin E) [%] | remaining activity at 1 µM (MLCK2/MYLK2) [%] | % enzyme activity (c-Src) [%] | remaining activity at 1 µM (PDGFRa) [%] | % enzyme activity (NLK) [%] | remaining activity at 1 µM (NLK) [%] | remaining activity at 1 µM (MEK3) [%] | % enzyme activity (MSK1/RPS6KA5) [%] |
| --- | --- | --- | --- | --- | --- | --- | --- | --- | --- |
| COc1cc(-c2cncc(-c3ccc(N4CCN(C)CC4)cc3)c2C)cc(F)c1C(N)=O [Compound 26a, 2-Fluoro-6-methoxy-4-(4-methyl-5-(4-(4-methylpiperazin-1-yl)phenyl)pyridin-3-yl)benzamide] | 98.3 | 97.19 | 66.8 | 96.22 | 82.9 | 20.81 | 22 | 102 | 82.15 |
| COc1cc(-c2cncc(-c3ccc(N4C[C@@H](C)N(C)[C@@H](C)C4)cc3)c2C)cc(F)c1C(N)=O [Compound 26c, 2-Fluoro-6-methoxy-4-(4-methyl-5-(4-((3R,5S)-3,4,5-trimethylpiperazin-1-yl)phenyl)pyridin-3-yl)benzamide] | 95.9 | 91.92 | 84.8 | 97.10 | 81.9 | 47.74 | 50.4 | 101 | 89.44 |
